Laboratory results reported in US20030124636A1, “Individualization of therapy with antiarrhythmics” (McGill University, priority 2001, published 2003).
Where two headings read alike, the source gives them in different places. Marks after values point to notes of the source that are not given here.

Experiments:
1X-Ab = experiment: Competitive antigen ELISA, cross-reactivity of 1X-Ab; format: binding, rabbit; details: 0 = absence of inhibition or inhibition no higher than 40% at highest concentration tested (5 × 10^−3 M)
Description: (§1) Buffers and water without additives are filtered through millipore filters and kept for 1 week. BSA, antibodies, Tween™ 20 and horse radish peroxidase conjugates are added to these buffers and water just prior to use. Urine samples are usually collected 4 hours after drinking a cup of coffee (instant or brewed with approximately 100 mg of caffeine per cup) and stored at −80° C. The urine samples are diluted 10 times with sodium phosphate buffer (620 mosm, pH 7.50) and are subsequently diluted with water to give concentrations of AAMU and 1X no higher than 3×10^−6 M in the ELISA. All the pipettings are done with an eight-channel pipette, except those of the antibody and sample solutions. Starting with the last well, 100 μL of a carbonate buffer (100 mM, pH 9.6) containing 2.5 μg mL^−1 antibodies are added to each well. After 90 min. at room temperature, the wells are washed three times with […] of TPB: isotonic sodium phosphate buffer (310 mosm, pH 7.50) containing 0.05% Tween™ 20.
(§2) After the initial wash, unoccupied sites are blocked by incubation for 90 min. at room temperature with 100 μL TBP containing 3% BSA. The wells are washed four times with 100 μL TPB. […] The microplate is gently shaken with an orbital shaker at room temperature for 3-4 hours. The wells are washed three times with 100 μL TPB containing 1% BSA and three times with water containing 0.05% Tween™20. To the washed plate is added 150 μL of a substrate buffer composed of citric acid (25 mM) and sodium phosphate dibasic buffer (50 mM, pH 5.0) containing 0.06% hydrogen peroxide and 0.04% o-phenylenediamine hydrochloride.
(§3) Buffers and water without additives were filtered through millipore filters and kept for 1 week. BSA, antibodies, Tween™20 and horse radish peroxidase conjugates were added to these buffers and water just prior to use. Urine samples were usually collected 4 hours after drinking a cup of coffee (instant or brewed with approximately 100 mg of caffeine per cup) and stored at −80° C. They were diluted 10 times with sodium phosphate buffer (620 mosm, pH 7.50) and were subsequently diluted with water to give concentrations of AAMU and 1X no higher than 3×10^−6 M in the ELISA. All the pipettings were done with an eight-channel pipette, except those of the antibody and sample solutions. Starting with the last well, 100 μL of a carbonate buffer (100 mM, pH 9.6) containing 2.5 μg mL^−1 antibodies was pipetted. After 90 min. at room temperature, the wells were washed three times with 100 μL of TPB: isotonic sodium phosphate buffer (310 mosm, pH 7.50) containing 0.05% Tween™ 20.
(§4) After the initial wash, unoccupied sites were blocked by incubation for 90 min. at room temperature with 100 μL TBP containing 3% BSA. The wells were washed four times with 100 μL TPB. […] The microplate was gently shaken with an orbital shaker at room temperature for 3-4 hours. The wells were washed three times with 100 μL with TPB containing 1% BSA and three times with water containing 0.05% Tween™ 20. To the washed plate was added 150 μL of a substrate buffer composed of citric acid (25 mM) and sodium phosphate dibasic buffer (50 mM, pH 5.0) containing 0.06% hydrogen peroxide and 0.04% o-phenylenediamine hydrochloride. After 20 min. at room temperature with shaking, the reaction was stopped with 50 μL of 2.5 N HCl.
(§5) The cross reactivities of AAMU-Ab and 1X-Ab were tested using a wide variety of caffeine metabolites and structural analogs (Table 2 below).

AAMU-Ab = experiment: Competitive antigen ELISA, cross-reactivity of AAMU-Ab; format: binding, rabbit; details: 0 = absence of inhibition or inhibition no higher than 40% at highest concentration tested (5 × 10^−3 M)
Description: as §1, §2, §3, §4, §5

[1] = cited from earlier work

SMILES | % Cross-Reaction 1X-Ab (1X-Ab) | % Cross-Reaction AAMU-Ab (AAMU-Ab) | adverse reactions to dapsone ([1]; fast acetylators) | adverse reactions to dapsone ([1]; slow acetylators)
CC(=O)Nc1c(N)n(C)c(=O)[nH]c1=O [5-Acetamino-6-amino-1-methyluracil] | 0% | 100% | – | –
Cn1cnc2c1c(=O)[nH]c(=O)n2C [3,7-Dimethyl Xanthine (Theobromine), 3,7-Dimethyl Xanthine] | 0% | 0% | – | –
Cn1c(=O)[nH]c(=O)c2[nH]cnc21 [3-Methyl Xanthine] | 0% | 0% | – | –
Cc1nc2[nH]c(=O)[nH]c(=O)c2[nH]1 [8-Methyl Xanthine] | 0% | 0% | – | –
O=c1[nH]c(=O)c2[nH]cnc2[nH]1 [Xanthine] | 0% | 0^a % | – | –
CC(=O)Nc1c(N)n(C)c(=O)n(C)c1=O [5-Acetamino-6-amino-1,3-dimethyluracil] | 0% | 0% | – | –
Cn1cnc2[nH]c(=O)[nH]c(=O)c21 [7-Methyl Xanthine] | 0% | 0% | – | –
Cn1c(=O)[nH]c2[nH]c(=O)[nH]c2c1=O [1-Methyluric acid] | 11% | 0% | – | –
O=c1cc[nH]c(=O)[nH]1 [Uracil] | 0% | 0% | – | –
Cn1c(=O)[nH]c2[nH]c(=O)n(C)c2c1=O [1,7-Dimethyluric acid] | 0% | 0% | – | –
Cn1c(=O)c2c(ncn2C)n(C)c1=O [1,3,7-Trimethyl Xanthine (Caffeine), 1,3,7-Trimethyl Xanthine] | 0% | 0% | – | –
O=c1[nH]cnc2nc[nH]c12 [Hypoxanthine] | 0% | 0% | – | –
O=c1[nH]c(=O)c2[nH]c(=O)[nH]c2[nH]1 [Uric acid] | 0% | 0% | – | –
Nc1nc2nc[nH]c2c(=O)[nH]1 [Guanine] | 0% | 0% | – | –
Nc1ccc(S(=O)(=O)c2ccc(N)cc2)cc1 [dapsone] | – | – | 17% | 46%
CC(=O)Nc1c(N)[nH]c(=O)[nH]c1=O [5-Acetamino-6-amino-uracil] | 0% | 0.6% | – | –
Cn1c(=O)[nH]c2nc[nH]c2c1=O [1-Methyl Xanthine (1X), 1-Methyl Xanthine] | 100% | 0% | – | –
Cn1c(=O)[nH]c2ncn(C)c2c1=O [1,7-Dimethyl Xanthine (Paraxanthine), 1,7-Dimethyl Xanthine] | 0.5% | 0% | – | –
Cn1c(=O)c2[nH]cnc2n(C)c1=O [1,3-Dimethyl Xanthine (Theophylline), 1,3-Dimethyl Xanthine] | 0.2% | 0% | – | –
